Entries after “also recorded” stand apart in the source; their conditions may differ.
Columns and labels:
[1] = tested on: experimental autoimmune encephalomyelitis (EAE), brain and spinal cord; assay: Histological analysis of brains and spinal cords of EAE mice at peak disease; assay type: in vivo, SJL mice
Procedure: Histological Analysis. At peak disease (14 days PT), mice were euthanized with CO2. […] Brains were cut into three segments (roughly, anterior cerebrum, midbrain and cerebellum) and embedded as a single block. […] A standard H&E (hematoxylin and eosin) glass slide was prepared from each tissue block (brain and spinal cord) from each mouse submitted with two resulting H&E slides per mouse evaluated. Slides were evaluated and lesions seen were graded subjectively for presence (P=present) and/or severity. […] The location of findings, relative to the organ, was denoted as perivascular, periventricular, ependymal or meningeal, and also as focal (in small areas or not throughout the section), or diffuse (throughout the section examined). Focal was defined as very localized and not affecting every structure. Findings not defined as focal were diffuse or affecting every structure (e.g. all vessels). […] Typical murine models of EAE have scattered foci of slight to moderate-sized aggregates of leukocytes and rarely have diffuse infiltrates in the affected tissues.

[2] = tested on: experimental autoimmune encephalomyelitis (EAE); assay: EAE induced by adoptive transfer of PLP-primed effector cells: clinical disease; assay type: in vivo, SJL mice; details: for onset, incidence and severity of disease (EAE): ovariectomized female SJL recipient mice, compounds daily s.c. or p.o. from 5-7 days before transfer, severity scale 0-6
[3] = tested on: PLP-primed effector cells (splenocytes); assay: Cytokine production by PLP-primed effector cells upon antigen stimulation in vitro; assay type: cell-based, SJL mice; details: compound 1 μM, 5 μg/ml PLP, 3 days
Procedure: To examine in vitro the effect of compounds on cytokine production by PLP-primed effector cells, SJL mice were immunized with PLP emulsified in CFA. After 10 days, spleens were collected and single cell suspensions were made. After lysis of red blood cells, splenocytes were stimulated with 5 μg/ml PLP in the presence of compound for 3 days at 37° C., 5% CO2. Control samples were not stimulated and cultured in medium only (“medium”). Compounds were added at a final concentration of 1 μM. After the 3-day incubation, supernatants were collected and stored at −20° C. Cytokines (TNF-α, IFN-γ, IL-5, IL-4, IL-2) were measured in the supernatants using a Cytometric Bead Array kit.

[4] = tested on: PLP-primed effector T cells (splenocytes); assay: Proliferation of effector T cells upon antigen (PLP) stimulation, CFSE flow cytometry; assay type: cell-based, SJL mice; details: compound 1 μM, 3 days
Description: Effect of compounds on proliferation of effector T cells upon antigen stimulation To examine the effect of proliferation of effector T cells in vitro in response to PLP stimulation, T-cell proliferation was examined by flow cytometry using the following assay. SJL mice were immunized with PLP emulsified in CFA. After 10 days, spleens were collected and single cell suspensions were made. After lysis of red blood cells, splenocytes were labeled with carboxy fluorescein succinimidyl ester (CFSE). CFSE-labeled cells were then incubated with PLP for 3 days at 37° C., 5% CO2. Compounds were added at a final concentration of 1 μM. To determine the percentage of CD4^+ cells that divided, the CFSE-labeled cells were stained with antibodies specific for the CD4 marker prior to flow cytometric analysis.

[5] = Table III (ER-selective agonists), 14 days PT
[6] = Table III (ER-selective agonists), 14 days PT, grade 0-5
[7] = Table II, 14 days PT, grade 0-5
[8] = Table II, 14 days PT, grade 0 within normal limits to 5 severe

Row | Structure (SMILES) | Brain Meningeal/Perivascular Leukocyte Infiltrates: number of brains with finding/total number evaluated [1, 5] | Spinal Cord Demyelination: number with finding/total number evaluated [1, 5] | Spinal Cord Meningeal/Perivascular Leukocyte Infiltrates: number with finding/total number evaluated [1, 5] | Brain Meningeal/Perivascular Leukocyte Infiltrates: average severity grade of lesions seen [1, 6] | Spinal Cord Demyelination: average severity grade of lesions seen [1, 6] | Spinal Cord Meningeal/Perivascular Leukocyte Infiltrates: average severity grade of lesions seen [1, 6] | onset, incidence and severity of disease (EAE) [2] | Brain Meningeal/Perivascular Leukocyte Infiltrates: number of brains with finding/total number evaluated ([1]; Table II, 14 days PT) | Spinal Cord Demyelination: number with finding/total number evaluated ([1]; Table II, 14 days PT) | Spinal Cord Meningeal/Perivascular Leukocyte Infiltrates: number with finding/total number evaluated ([1]; Table II, 14 days PT) | Spinal Cord Meningeal/Perivascular Leukocyte Infiltrates: average severity grade of lesions seen [1, 7] | Brain Meningeal/Perivascular Leukocyte Infiltrates: average severity grade of lesions seen [1, 8] | further results
1 | C=Cc1cc(O)cc2nc(-c3ccc(O)c(F)c3)oc12 [ERβ-041] | 4/4 | 2/4 | 2/4 | 2.3 | 1.5 | 1.5 | – | – | – | – | – | – | –
2 | O=C(c1ccc(OCCN2CCCCC2)cc1)c1c(-c2ccc(O)cc2)sc2cc(O)ccc12 [Raloxifene, raloxifene] | – | – | – | – | – | – | delay in onset as well as decreased incidence and severity of disease; also recorded: delayed onset of disease, as well as decreased incidence and severity | – | – | – | – | – | –
3 | C[C@]12CC[C@@H]3c4ccc(O)cc4CC[C@H]3[C@@H]1CC[C@@H]2O [Compound E2, 17β-estradiol] | 3/4 | 1/4 | 2/4 | 1.7 | 1 | 1 | delay in onset as well as decreased incidence and severity of disease | 4/4 | ¾ | ¾ | 1.7 | 2.5 | Spinal Cord Demyelination: average severity grade of lesions seen [1, 7]: 1.3; Distribution of Brain Lesions [1, 5]: Meningeal
4 | CCCc1c(-c2ccc(O)cc2)nn(-c2ccc(O)cc2)c1-c1ccc(O)cc1 [PPT, propylpyrazole triol] | – | 0/4 | 0/4 | 1 | – | – | – | – | – | – | – | – | –
5 | Cc1c(-c2ccc(O)cc2)n(Cc2ccc(OCCN3CCCCC3)cc2)c2ccc(O)cc12.Cl.O [Compound A] | – | – | – | – | – | – | – | 3/5 | 0/5 | 1/5 | 1 | 2.7 | onset, incidence and severity of disease (EAE) ([2]; hydrochloride monohydrate): delay in onset as well as decreased incidence and severity of disease; also recorded: delayed onset of disease, as well as decreased incidence and severity; demyelination in spinal cords ([1]; SERM experiment): no demyelination was detected; amount of inflammatory cells infiltrating the spinal cords and brains ([1]; compared to mice from other treatment groups (text, SERM experiment)): reduction; pathology and leukocyte infiltration in the brains and spinal cords ([1]; conclusions): reduced pathology and leukocyte infiltration; IFN-γ production by effector T cells upon antigen stimulation [3]: suppressed; IL-4 production by effector T cells upon antigen stimulation [3]: concomitant increase; TNF-α production by effector T cells upon antigen stimulation [3]: inhibited; cytokine production by effector cells upon antigen stimulation [3]: decreased cytokine production; proliferation of CD4+ cells upon antigen stimulation [4]: suppressed; proliferation of CD4− cells upon antigen stimulation [4]: suppressed; proliferation of antigen-specific T cells [4]: decreased proliferation
6 | C[C@]12CC[C@@H]3c4ccc(O)cc4C[C@@H](CCCCCCCCC[S+]([O-])CCCC(F)(F)C(F)(F)F)[C@H]3[C@@H]1CC[C@@H]2O (some centres unmarked) [ICI 182,780] | – | – | – | – | – | – | – | – | – | – | – | – | effect of ER antagonist on estrogen-mediated suppression of disease ([2]; mice treated with both E2 and ICI 182,780): abolished the effect of E2 on disease

Reference: patent US20040167112A1, “Use of estrogen receptor alpha modulators for the treatment of multiple sclerosis” (Wyeth, priority 2003, published 2004)
